# Laboratory results reported in PubChem BioAssay (NCI).
#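 96-well plates; 48 h exposure; 5 concentrations. Endpoints by linear interpolation between flanking doses. Not reached: highest tested concentration assigned. GI50 is the concentration that inhibits growth by half. Definition used: TGI = concentration required for complete inhibition of growth.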
# Assays:
# Assay in all cases: DTP human tumour cell line panel, 48 h
# [1] = test system: DMS 114 small cell lung
# [2] = test system: DMS 273 small cell lung
# [3] = test system: KM20L2 colon
# [4] = test system: HOP-18 NSCLC
# [5] = test system: LXFL 529 NSCLC
# [6] = test system: XF 498 CNS
# [7] = test system: MDA-N
# [8] = test system: RXF-631 renal
SMILES,TGI [1] [µM],TGI [2] [µM],TGI [3] [µM],TGI [4] [µM],TGI [5] [µM],TGI [6] [µM],TGI [7] [µM],TGI [8] [µM],GI50 [4] [µM],GI50 [3] [µM],GI50 [5] [µM]
CC(=O)OC1CCC2OOC1O2 (stereo not drawn),> 100,> 100,> 100,–,–,–,–,–,–,–,–
Cc1ccc2c(c1)-c1c3c(nn1C)-c1ccccc1SC3O2 (stereo not drawn),> 100,> 100,> 100,> 100,> 100,88.5,–,–,–,–,–
O=C(O)c1ccc2c(c1)C(=O)N(c1ccc(S(=O)(=O)c3ccc(N4C(=O)c5ccc(C(=O)O)cc5C4=O)cc3)cc1)C2=O,> 100,> 100,> 100,–,> 100,> 100,–,–,–,–,–
COc1cccc2c1C(=O)c1c(O)c3c(c(O)c1C2=O)C[C@@](O)(C(=O)CO)CC3OC1CC(N)C(OC2CCCCO2)C(C)O1 (stereo partly drawn),–,7.18,4.98,1.06,3.14,1.47,0.362,–,–,–,–
COc1ccc(CN2C(=O)[C@@H]3Cc4c(OC)c(C)c(OC)c(OC)c4[C@H](/C2=C\c2cc(OC)c(OC)c(C)c2OC)N3C(=O)OC(C)C)cc1,> 100,> 100,> 100,> 100,> 100,–,–,> 100,–,–,–
Cc1ccccc1NC(=O)/C(=N\NC(N)=S)C(C#N)c1ccccc1 (stereo not drawn),> 100,> 100,> 100,> 100,> 100,–,–,> 100,–,–,–
C/C(=N\NC(=O)c1ccncc1)c1sc(-n2nc(-c3ccccc3)cc2-c2ccccc2)nc1C,–,–,–,–,–,–,> 100,–,–,–,–
N#C/C(=C\c1cc(O)c(O)c(O)c1)C(N)=O,> 100,> 100,> 100,–,> 100,> 100,> 100,> 100,–,–,–
C/C=C(\N=C=S)C(=O)OC1C(COC(C)=O)OC([C@]2(O)CC(=O)C(=N)C(C(=O)O)=C2O)C(O)C1OC1CC(OC)C(O)([C@@H](C)OC(=O)[C@@H](C)CC)C(C)O1 (stereo partly drawn),14.9,32.1,18.5,30.4,4.16,5.92,26.5,–,–,–,–
NS(=O)(=O)c1ccc(N=Nc2ccc[nH]c2=O)cc1,–,–,–,–,–,–,> 100,–,–,–,–
CN(C)NC(=O)/C(=C/c1ccc(Cl)cc1)NC(=O)c1ccccc1,–,> 100,> 100,> 100,> 100,> 100,–,> 100,–,–,–
CN(C)NC1=C([N+](=O)[O-])C=NN(c2ccccc2)C1,3.33,3.18,3.54,3.25,3.03,3.93,–,3.33,–,–,–
CC1(C)C(N2CCOCC2)CS1(=O)=O (stereo not drawn),–,–,–,–,–,–,> 10,–,–,–,–
Cc1ccccc1NC(=O)Cc1nc2ccccc2s1,–,37.6,36.6,17.2,29.9,27.6,–,32.3,–,–,–
CC1(C)c2ccccc2N2C(c3ccccc3)=NOC21C (stereo not drawn),> 100,> 100,> 100,> 100,> 100,–,–,> 100,–,–,–
COC(=O)c1c(O)ccc(O)c1C(C(C)=O)C(C)=O,> 100,> 100,–,–,> 100,> 100,–,–,–,–,–
C[P+]1(Cc2ccccc2)CCCC1,> 100,> 100,> 100,> 100,> 100,–,–,–,–,–,–
O=C(O)CCC(c1ccccc1)(c1ccccc1)c1ccccc1,–,–,–,–,–,–,> 100,–,–,–,–
Cc1cccc(C)c1NC(=O)CCC(=O)NC(N)=NC#N,> 100,–,> 100,> 100,> 100,> 100,–,> 100,–,–,–
C[C@]12CC[C@H](O[C@@H]3O[C@H](CO[C@@H]4O[C@H](CO)[C@@H](O)[C@H](O)[C@H]4O)[C@@H](O)[C@H](O)[C@H]3O)C[C@@H]1CC[C@@H]1[C@@H]2CC[C@]2(C)[C@@H](C3=CC(=O)OC3)CC[C@]12O,–,–,–,–,–,–,93.5,–,–,–,–
CC(=O)[CH-]C(=O)c1ccccc1.CC(=O)[CH-]C(=O)c1ccccc1.Cl.[O-]c1ccnc2ccccc12.[O-]c1ccnc2ccccc12.[Ti+4],–,–,> 100,> 100,> 100,–,–,–,> 100,> 100,> 100

SMILES,TGI [1] [µM],TGI [2] [µM],TGI [3] [µM],TGI [4] [µM],TGI [5] [µM],TGI [6] [µM],TGI [7] [µM],TGI [8] [µM],GI50 [4] [µM],GI50 [3] [µM],GI50 [5] [µM]
O/N=C(\CC(O)(C(F)(F)F)C(F)(F)F)c1cccs1,–,–,–,–,–,–,> 10,–,–,–,–
CC1OC(n2cc(C(F)(F)F)c(=O)[nH]c2=O)C=CC1=O (stereo not drawn),–,–,48.1,–,31.6,30.3,–,25.3,–,–,–
O=C(NC1CC1)c1c(O)[nH]c(=S)[nH]c1=O,> 100,–,> 100,> 100,> 100,–,–,> 100,–,–,–
Cc1ccc(S(=O)(=O)OCOS(=O)(=O)c2ccc(C)cc2)cc1,> 100,> 100,> 100,> 100,> 100,–,–,–,–,–,–
O=c1nc2sc3ccccc3c(=O)n2[nH]1,–,> 100,> 100,> 100,> 100,> 100,–,> 100,–,–,–
CC(=Nc1ccc(N(C)C)cc1)c1ccccc1,–,–,–,–,–,–,52.2,–,–,–,–
CC1(C)C(=O)OC(n2cc(F)c(=O)[nH]c2=O)C1=O (stereo not drawn),> 100,–,> 100,> 100,> 100,> 100,–,–,–,–,–
Cc1ccc(N(C=O)c2c([N+](=O)[O-])cc([N+](=O)[O-])c3c2=[N+]([O-])CN=3)cc1,–,–,–,–,–,–,> 100,–,–,–,–
Cc1cccc(NC(=O)C(=O)C(C2OC(=O)c3ccccc32)[N+](=O)[O-])c1C (stereo not drawn),10.3,10.3,42.7,22.3,20.3,18.7,–,33.7,–,–,–
CCC12C=CCN(CCc3c([nH]c4ccccc34)/C=C\1)C2 (stereo not drawn),> 100,> 100,> 100,> 100,> 100,> 100,–,> 100,–,–,–
CC(C)(C)[Si](C)(C)OCC1OC(n2cnc3c(=O)[nH]cnc32)CC1O (stereo not drawn),–,–,–,–,–,–,> 100,–,–,–,–
N#Cc1c2ccccc2c(Cc2ccc3c(c2)OCCOCCOCCOCCOCCO3)c2ccccc12,23.9,17.8,21.7,21.8,30.4,23.5,–,–,–,–,–
COC(=O)C1=CC2C(=O)OC1C1C(=O)NC(=O)C21 (stereo not drawn),> 100,> 100,> 100,> 100,> 100,> 100,–,> 100,–,–,–
C=C1C(=O)O[C@H](c2ccoc2)C[C@@H]1[C@@]1(C)CCCC2(C)C(=O)OCC21 (stereo partly drawn),> 100,> 100,> 100,–,> 100,> 100,–,–,–,–,–
CCOC(=O)C1=C(C)NC(=O)NC1c1ccc(OC)cc1OC (stereo not drawn),> 100,> 100,> 100,> 100,> 100,> 100,–,–,–,–,–
Nc1cccc2c1-c1c(cccc1[N+](=O)[O-])C2=O,> 100,> 100,> 100,> 100,–,–,–,–,–,–,–
COc1cc(OCc2ccccc2)c2c(CCC(=O)O)cc(=O)oc2c1 (tested in a mixture with another compound),–,–,–,–,–,–,> 100,–,–,–,–
CCOC(=O)c1cc(=O)n(C)c(=O)n1C,–,> 100,> 100,> 100,> 100,> 100,–,–,–,–,–
N#C/C(=C\c1c(O)cc(O)cc1O)C(N)=O,> 100,> 100,> 100,–,> 100,> 100,–,> 100,–,–,–
O=C(/C=C/c1ccc(Cl)c(Cl)c1)c1ccccc1Cl,11.2,14.5,23.7,25.3,19.6,33.3,–,31.4,–,–,–
Cn1[nH]cc2ccc3nc4ccccc4c(=O)c3c21,> 100,> 100,> 100,> 100,> 100,–,–,> 66.1,–,–,–
